Read-outs that look alike come from different tables or passages of the source.
Columns and labels:
Pythium ultimum = test: Threshold concentration test for use of the compounds against Pythium ultimum (infested soil, garden peas); format: in vivo; set-up: key to root evaluation (1-4): 4: white roots without fungous necrosis; 3: white roots, minor fungous necrosis; 2: brown roots, already more pronounced fungous necrosis; 1: heavy fungous necrosis, roots rotted; settings: for root evaluation (1-4): 3 weeks; for number of sound peas: 20 grains per dish, 3 weeks at 20-24° C.
Summary of the method: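 Pulverulent agents at 20% concentration mixed evenly into soil heavily infested with Pythium ultimum, then garden peas ('Wunder von Kelvedon', 20 per dish) sown at once. After three weeks at 20–24 °C in a hothouse, sound peas counted and roots scored on a 1–4 scale.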

Penicillium digitatum = test: Inhibition of fungus in a nutrient solution: Penicillium digitatum; format: cell-based; settings: 6 days at 21-23° C.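 Further: 0 means no fungus growth and higher grades mean more surface covered.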
Botrytis cinerea = test: Inhibition of fungus in a nutrient solution: Botrytis cinerea; format: cell-based; settings: 6 days at 21-23° C.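 Further: 0 means no fungus growth and higher grades mean more surface covered.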
Alternaria solani = test: Inhibition of fungus in a nutrient solution: Alternaria solani; format: cell-based; settings: 6 days at 21-23° C.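 Further: 0 means no fungus growth and higher grades mean more surface covered.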
Fusarium avenaceum = test: Inhibition of fungus in a nutrient solution: Fusarium avenaceum; format: cell-based; settings: 0.004%, 6 days at 21-23° C.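 Further: 0 means no fungus growth and higher grades mean more surface covered.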
Summary of the method: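 Grape juice/water (1:1) nutrient solution mixed with powdered test agent, then inoculated with conidia. Surface fungal growth scored on a 0–5 scale after 6 days at 21–23 °C.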

Piricularia oryzae = format: in vivo; settings: 5 days
Tilletia caries = test: Seed treatment in open field tests regarding infestation by Tilletia caries (oats); format: in vivo; settings: summer oats; 50 g active agent/100 kg; about 4 months
[1] = tested on: Helminthosporium gramineum; test: Seed treatment in open field tests for infestation by Helminthosporium gramineum (barley); format: in vivo
Description: Seed treatment in open field tests for infestation by Helminthosporium gramineum
The active agents were used in the form of pulverulent compositions. After about 8 months in case of winter barley and after about 3 months in case of summer barley the infested plants were counted and the activity was calculated by the formula [formula]

Ustilago avenae = test: Oat seed treatment for Ustilago avenae; format: in vivo; settings: 100 g active agent/100 kg; 10 weeks
Fusarium nivale = test: Treatment of rye seeds against Fusarium nivale; format: in vivo; settings: 100 g/100 kg; about 4 weeks
Description: Treatment of rye seeds against Fusarium nivale
Rye seeds with a natural infestation by Fusarium nivale were seeded in earth filled pots and left for germination at about 6° C. Part of the seeds was treated before seeding with the active agents as appears from the subsequent table and part was untreated. After emergence of the seedlings the plants were illuminated with artificial light for 12 hours each day. After about 4 weeks the degree of infestation was determined in percentages. The fungicidal activity was calculated on the basis of the following formula: [formula]
The active agents were used in the form of 20% concentration compositions.

Venturia inaequalis = test: Prophylactic leaf treatment of apples in open field test against Venturia inaequalis; format: in vivo; settings: 3 weeks
Ustilago nuda tritici = test: Treatment of wheat seeds in open field tests against Ustilago nuda tritici; format: in vivo; settings: winter wheat; 100 g/100 kg seeds; eight months
Description: (§1) Treatment of wheat and barley seeds in open field tests against Ustilago nuda
(§2) Winter wheat seeds which had been infested with the smut cause Ustilago nuda tritici and winter barley seeds infested with Ustilago nuda nuda were treated with the agents listed in the table below and were seeded at seeding time in open fields. As a control untreated seeds were likewise included in the seed. After eight months the affected heads were counted for each test group and their proportion was calculated in order to find the fungicidal activity by the following formula: [formula]
(§3) The active compounds were employed in the form of 20% concentration powder compositions.

Ustilago nuda nuda = test: Treatment of barley seeds in open field tests against Ustilago nuda nuda; format: in vivo; settings: winter barley; 100 g/100 kg seeds; eight months
Description: as §1, §2, §3

Helminthosporium gram = settings: about 5 weeks
Description: Treatment of barley seeds infested with Helminthosporium gram
After emergence, the plants were subjected to illumination for 12 hours per day. After about 5 weeks the infested plants were counted and the total number of plants for each test were also counted. The active agents tested were used as pulverulent compositions.

**Q.** How did the “root evaluation (1-4)” value (Pythium ultimum; 20 mg/l soil) turn out when `CC(C)CS(=O)(=O)c1nnc(C(N)=O)s1` [5-isobutylsulfonyl-1,3,4-thiadiazole-2-carboxamide] was run?
**A.** The value was 1.

**Q.** What about the “number of sound peas” value (Pythium ultimum; 20 mg/l soil) of the same compound?
**A.** The value was 15.

**Q.** And the “root evaluation (1-4)” value (Pythium ultimum; 40 mg/l soil)?
**A.** Its value is 4.

**Q.** What about the “number of sound peas” value (Pythium ultimum; 40 mg/l soil) of the same compound?
**A.** Its value is 18.

**Q.** What about the “root evaluation (1-4)” value (Pythium ultimum; 80 mg/l soil) of the same compound?
**A.** Its value is 4.

**Q.** What about the “number of sound peas” value (Pythium ultimum; 80 mg/l soil) of the same compound?
**A.** The value was 18.

**Q.** And the “fungus development on the surface of the nutrient solution (0-5)” value (from here on “fungus development on the surface”) (Penicillium digitatum; 0.002%)?
**A.** The value was 1.

**Q.** And the “fungus development on the surface” value (Penicillium digitatum; 0.004%)?
**A.** Its value is 0.

**Q.** What about the “fungus development on the surface” value (Botrytis cinerea; 0.002%) of the same compound?
**A.** The value was 2 (5 to 10% of the surface covered by the fungus turf).

**Q.** And the “fungus development on the surface” value (Botrytis cinerea; 0.004%)?
**A.** The value was 1.

**Q.** What about the “fungus development on the surface” value (Alternaria solani; 0.002%) of the same compound?
**A.** Its value is 0.

**Q.** And the “fungus development on the surface” value (Alternaria solani; 0.004%)?
**A.** Its value is 0.

**Q.** And the “fungus development on the surface” value (Fusarium avenaceum)?
**A.** Its value is 0.

**Q.** And the “% activity” value (Piricularia oryzae; concentration of active agent 0.02 (percentages))?
**A.** The value was 65%.

**Q.** What about the “% activity” value (Piricularia oryzae; concentration of active agent 0.1 (percentages)) of the same compound?
**A.** Its value is 90%.

**Q.** And the “% activity” value (Tilletia caries)?
**A.** The value was 99%.

**Q.** What about the “% activity” value ([1]; summer barley, 50 g active agent/100 kg barley, about 3 months) of the same compound?
**A.** The value was 99.5%.

**Q.** And the “% activity” value ([1]; summer barley, 100 g active agent/100 kg barley, about 3 months)?
**A.** The value was 100%.

**Q.** And the “% activity” value ([1]; winter barley, 50 g active agent/100 kg barley, about 8 months)?
**A.** The value was 100%.

**Q.** And the “% activity” value ([1]; winter barley, 75 g active agent/100 kg barley, about 8 months)?
**A.** Its value is 100%.

**Q.** What about the “% activity” value ([1]; winter barley, 100 g active agent/100 kg barley, about 8 months) of the same compound?
**A.** The value was 100%.

**Q.** What about the “% activity” value (Ustilago avenae) of the same compound?
**A.** The value was 87%.

**Q.** And the “% activity” value (Fusarium nivale)?
**A.** Its value is 99.2%.

**Q.** And the “% activity” value (Venturia inaequalis; concentration of active agent 0.005 (in gram))?
**A.** Its value is 87%.

**Q.** What about the “% activity” value (Venturia inaequalis; concentration of active agent 0.025 (in gram)) of the same compound?
**A.** The value was 95%.

**Q.** What about the “% activity” value (Ustilago nuda tritici) of the same compound?
**A.** Its value is 75%.

**Q.** And the “% activity” value (Ustilago nuda nuda)?
**A.** Its value is 79%.

**Q.** What about the “% activity” value (Helminthosporium gram; 20 g active agent per 100 kg) of the same compound?
**A.** Its value is 60%.

**Q.** What about the “% activity” value (Helminthosporium gram; 50 g active agent per 100 kg) of the same compound?
**A.** The value was 87%.
